Measurements: patent EP4260850A1, “PHARMACEUTICAL COMPOSITION COMPRISING PTEROSIN COMPOUND AND DERIVATIVE THEREOF AS ACTIVE INGREDIENT FOR PREVENTION OR TREATMENT OF PKA-RELATED DISEASE” (GHPharm Co., Ltd., priority 2020, dated 2022)
Like-named read-outs stand apart in the source and are kept apart here.

Legend:
CREB [1] = test: Western blot for CREB phosphorylation level in astrocytes; type: cell-based; settings: FIG. 2
Method: (§1) Western blot analysis was performed by using the following method. Cells were lysed in RIPA buffer (20 mM Tris-Cl pH 7.4, 1 mM EDTA, 150 mM NaCl, 1% Triton X-100, 1 mM EGTA, 1 µM Na3VO4, 2.5 mM sodium pyrophosphate, 1 µM phenylmethylsulfonyl fluoride, 1 ug/ml leupeptin). The protein concentration was calculated by using BCA Protein Assay Reagent (BioRad, Hercules, CA, USA). Protein samples were separated by SDS-PAGE and transferred to polyvinylidene difluoride (PVDF) membranes (Millipore, Bedford, MA, USA). Membranes were incubated overnight at 4 °C with primary antibodies followed by HRP-conjugated goat anti-rabbit IgG (1:5,000; Pierce; Carlsbad, CA, USA). The used primary antibodies were actin (sigma; 1:1000), p-CREB (Cell signaling; 1:1000), tubulin (Cell signaling; 1:1000), p-PKA (Cell signaling; 1:1000), p -trk (Cell signaling; 1:1000) and BDNF (Abcam; 1:1000). All membranes were visualized by using a UVP Autochemi Darkroom Imaging System (Utra-Violet Products Ltd. UK) and Immobilon Crescendo Western HRP Substrate or Luminata Forte Western HRP Substrate (Millipore, USA).

hippocampal slice = test: Electrophysiology in hippocampal slices (fEPSP, LTP); set-up: species or system mouse; settings: theta-burst stimulation, FIG. 10
Method: • 1. The brain of a 4-month-old mouse was placed on an ice-cold dissection buffer, and a 300 µm-thick sagittal hippocampal slice was prepared by using a vibratome (dissection buffer: contents in mM: […], 25 NaHCO3, 5 KCl, 1.25 NaH2PO4, 0.5 CaCl2, 3.5 MgSO4, 10 D-glucose, 1.25 L-ascorbic acid and 2 Na-pyruvate bubbled with 95% O2/5% CO2). • 2. Slices were recovered at 32°C for 1 hour in normal ACSF (ACSF: mM: 125 NaCl, 2.5 KCl, 1.25 NaH2PO4, 25 NaHCO3, 10 glucose, 2.5 CaCl2 and 1.3 MgCl2 oxygen in 95% O2/5% CO2). • 3. During recording, the slices were moved to a chamber submerged in ACSF at 28°C, and ACSF saturated with 95% O2/5% CO2 was continuously perfused (2ml/min). A Micropipette for stimulation and recording was fabricated by using boron acid glass capillaries (Harvard Instruments) and a micropipette electrode puller. • 4. For input/output, paired-pulse ratio, and long-term potentiation (LTP) experiments, an ACSF-filled pipette (resistance: […]) was used to test the hippocampus. A field excitatory post-synaptic potential (fEPSP) was measured in the CA1 region. The fEPSP signal was amplified by using Multiclamp 700B (Molecular Devices) and digitized by using Digidata 1440A (Molecular Devices). […] The pair-pulse ratio was measured after giving the pair stimulation at intervals of 25, 50, 75, 100, 200, and 300 ms . • 6. […]

CREB [2] = test: Western blot for CREB phosphorylation level in neurons; type: cell-based; settings: for CREB phosphorylation: 10 µM, FIG. 2, against positive control amx; for phosphorylation of CREB: FIG. 8, compared with pterosin B
Method: as §1

in vitro = settings: for Papp at 4 h: PAMPA, pH 7.4, Pe Average
Method: Progesterone was used as a positive control and ranitidine was used as a negative control: • (1) A donor buffer at pH 7.4 was dispensed to a deep well plate and mixed with a test substance. • (2) The donor buffer was dispensed into a U.V plate by 150ul per well, and the optical density was measured: blank value. • (3) The mixture was dispensed in the deep well plate into the U.V plate by 150ul per well, and then the optical density was measured: blank value. • (4) 200ul of the mixture in step 1) was dispensed into the donor plate of the Stirwell PAMPA sandwich. • (5) The membrane of the acceptor plate of the Stirwell PAMPA sandwich was coated with 5 ul of BBB-1-lipid. • (6) A brain sink buffer was dispensed into each well on the acceptor plate by 200 ul. • (7) The acceptor plate and donor plate were combined and incubated at 25°C for 4 hours. • (8) After 4 hours of incubation, the acceptor plate and donor plate were separated, and 150 µl each was transferred to a UV plate, and the optical density was measured.

B16F10 cells = test: MTT assay, cytotoxicity in cancer cells; type: cell-based; settings: for cytotoxicity: cancer cells (B16F10), result in words
Method: (§2) NIH3T3 cells, as a mouse fibroblast cell line, and B16F10 cells, as a mouse melanoma cell line, were dispensed into a 96 well plate at 2×10^3 cells/well, and cultured in DMEM supplemented with 10% fetal bovine serum (FBS) at 5% CO2 and 37°C. Compounds (pterosin A, pterosin B, pterosin C, pterosin D, pterosin P, pterosin Z, pteroside A, pteroside B and pteroside Z) were treated at different concentrations and then cultured for 48 hours. Thereafter, MTT solution (5 mg/ml) was added to each well at a concentration of […] and incubated at 37°C for 4 hours. […] After incubation for 10 minutes, optical density was measured at 550 nm by using a Microplate Reader (Molecular Devices, Spectra Max, USA). An optical density is an index representing the number of surviving cells and is calculated by the formula below, and reproducibility was confirmed through three experiments. Cell proliferation rate (%) = OD550 (sample)/OD550; (control) × 100 [formula]
(§3) As described in the experimental method, mouse embryo fibroblast cell-line (NIH3T3) as a normal cell and Mouse melanoma cell-line (B16F10) as a cancer cell were cultured in a 96-well plate, and each compound was added to the cell medium at each concentration and cultured for 48 hours, MTT was then administered, and the optical density was measured at 550 nm by using a microplate reader. The optical density is an index representing the number of surviving cells and calculated by the following formula, and reproducibility was confirmed through three experiments. Cell proliferation rate (%) = OD550 (sample)/OD550; (control) × 100 [formula]
(§4) Then, the LD50 (Lethal Dose 50) value was calculated based on the change in cell proliferation rate.

NIH3T3 cells = test: MTT assay, cytotoxicity in normal cells; type: cell-based; settings: for cytotoxicity: normal cells (NIH3T3), result in words
Method: as §2, §3, §4

nerve cells (Neuron) = test: Neuron proliferation, differentiation and regeneration promoting ability (microscopy); type: cell-based; settings: against control group, FIG. 11
Method: The abilities of pterosin compounds to promote nerve cell proliferation, differentiation and regeneration were evaluated.

[3] = Cancer cell B16F10, cultured 48 hours, MTT, OD 550 nm
[4] = pH 7.4, 25°C, 4 hours, controls 50 µM, Pterosin D 12.5 µM
[5] = Normal cell NIH3T3, cultured 48 hours, MTT, OD 550 nm

Row | Compound | CREB phosphorylation (CREB [1]) | CREB phosphorylation (CREB [2]) | LD50 (B16F10 cells; [3]) | cytotoxicity (B16F10 cells) | LD50 (NIH3T3 cells; [5]) | cytotoxicity (NIH3T3 cells) | other results
1 | Cc1cc2c(c(C)c1CCO)C(=O)[C@@H](C)[C@@H]2O [pterosin C] | no effect | significantly increased |  |  |  |  | hippocampus mossy fiber-CA1 LTP (hippocampal slice): particularly strong; phosphorylation of CREB (CREB [2]): statistically significantly increased
2 | CC(=O)[C@H]1CC[C@H]2[C@@H]3CCC4=CC(=O)CC[C@]4(C)[C@H]3CC[C@]12C [Progesterone, reference compound] |  |  |  |  |  |  | Papp at 4 h (in vitro): 288 nm/s
3 | Cc1cc2c(c(C)c1CCO[C@@H]1O[C@H](CO)[C@@H](O)[C@H](O)[C@H]1O)C(=O)[C@H](C)C2 [Compound 9, (2R)-pteroside B] |  |  |  |  |  |  | LD50 (B16F10 cells): >5,000 µM; LD50 (NIH3T3 cells): >5,000 µM
4 | Cc1cc2c(c(C)c1CCO)C(=O)C(C)(C)[C@@H]2O [Compound 5, (3R)-pterosin D] | no effect | significantly increased | >5,000 µM | little cytotoxicity | >5,000 µM | little cytotoxicity | length of nerve cells (nerve cells (Neuron)): significantly longer; Papp at 4 h (in vitro; [4]): 209 nm/s; Pe 1st (in vitro; [4]): 19.74 10^-6cm/sec; Pe 2nd (in vitro; [4]): 20.20 10^-6cm/sec; Pe 3rd (in vitro; [4]): 22.73 10^-6cm/sec; BCS code, CNS +/- (spreadability to CNS) (in vitro; pH 7.4, controls 50 µM, Pterosin D 12.5 µM): CNS+ (>10); hippocampus mossy fiber-CA1 LTP (hippocampal slice): particularly strong; phosphorylation of CREB (CREB [2]): statistically significantly increased
5 | Cc1cc2c(c(C)c1CCO)C(=O)[C@@H](C)[C@H]2O [Compound 8, (2S,3R)-pterosin C] |  |  | >5,000 µM |  | >5,000 µM |  | 
6 | Cc1cc2c(c(C)c1CCO)C(=O)[C@](C)(CO)C2 [Compound 6, (2S)-pterosin A] | no effect | significantly increased |  | weak cytotoxicity only in cancer cells | >5,000 µM |  | phosphorylation of CREB (CREB [2]): statistically significantly increased
7 | Cc1cc2c(c(C)c1CCO[C@@H]1O[C@H](CO)[C@@H](O)[C@H](O)[C@H]1O)C(=O)[C@](C)(CO)C2 [Compound 11, (2S)-pteroside A] |  |  |  |  |  |  | LD50 (B16F10 cells): >5,000 µM; LD50 (NIH3T3 cells): >5,000 µM
8 | Cc1cc2c(c(C)c1CCO[C@@H]1O[C@H](CO)[C@@H](O)[C@H](O)[C@H]1O)C(=O)C(C)(C)C2 [Compound 10, pteroside Z] |  |  |  |  |  |  | LD50 (B16F10 cells): >5,000 µM; LD50 (NIH3T3 cells): >5,000 µM
9 | Cc1c(CCO)c(CO)cc2c1C(=O)[C@@H](C)C2 [Compound 4, (2S)-pterosin P] | no effect | did not increase CREB phosphorylation at all | >5,000 µM | little cytotoxicity | >5,000 µM | little cytotoxicity | 
10 | Cc1cc2c(c(C)c1CCO)C(=O)[C@H](C)[C@H]2O [Compound 7, (2R,3R)-pterosin C] |  |  | >5,000 µM |  | >5,000 µM |  | 
11 | Cc1cc2c(c(C)c1CCO)C(=O)C(C)(C)C2 [Compound 3, pterosin Z] | no effect | did not increase CREB phosphorylation at all |  | weak cytotoxicity |  | weak cytotoxicity | 
12 | Cc1cc2c(c(C)c1CCO)C(=O)[C@H](C)C2 [Compound 2, (2R)-pterosin B] | no effect | did not increase CREB phosphorylation at all | >5,000 µM | little cytotoxicity |  | little cytotoxicity | 
